Where two headings read alike, the source gives them in different places.
Legend:
[1] = target: T1, 5-HT3A receptors (Homo sapiens, UniProt P46098); assay: Competition binding with [^3H]VUF10166 at 5-HT3A receptors
T1 sequence (P46098 24-478): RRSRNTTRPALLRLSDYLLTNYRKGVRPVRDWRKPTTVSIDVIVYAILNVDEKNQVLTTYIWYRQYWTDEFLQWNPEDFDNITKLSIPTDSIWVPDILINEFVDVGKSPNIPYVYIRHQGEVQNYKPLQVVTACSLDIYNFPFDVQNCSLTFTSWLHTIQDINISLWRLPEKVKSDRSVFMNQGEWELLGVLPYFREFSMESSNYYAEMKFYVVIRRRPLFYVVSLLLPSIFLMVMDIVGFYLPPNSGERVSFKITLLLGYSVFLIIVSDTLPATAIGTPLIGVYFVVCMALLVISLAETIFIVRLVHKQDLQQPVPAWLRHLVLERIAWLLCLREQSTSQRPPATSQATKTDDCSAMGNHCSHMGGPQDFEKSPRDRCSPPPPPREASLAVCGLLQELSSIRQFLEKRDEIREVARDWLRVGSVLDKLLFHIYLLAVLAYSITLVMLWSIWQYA

[2] = target: T2, 5-HT3AB receptors (Homo sapiens, UniProt O95264+P46098); assay: Competition binding with [^3H]VUF10166 at 5-HT3AB receptors
T2 sequence (P46098 24-478): T1 sequence (P46098 24-478)
T2 sequence (O95264 22-441): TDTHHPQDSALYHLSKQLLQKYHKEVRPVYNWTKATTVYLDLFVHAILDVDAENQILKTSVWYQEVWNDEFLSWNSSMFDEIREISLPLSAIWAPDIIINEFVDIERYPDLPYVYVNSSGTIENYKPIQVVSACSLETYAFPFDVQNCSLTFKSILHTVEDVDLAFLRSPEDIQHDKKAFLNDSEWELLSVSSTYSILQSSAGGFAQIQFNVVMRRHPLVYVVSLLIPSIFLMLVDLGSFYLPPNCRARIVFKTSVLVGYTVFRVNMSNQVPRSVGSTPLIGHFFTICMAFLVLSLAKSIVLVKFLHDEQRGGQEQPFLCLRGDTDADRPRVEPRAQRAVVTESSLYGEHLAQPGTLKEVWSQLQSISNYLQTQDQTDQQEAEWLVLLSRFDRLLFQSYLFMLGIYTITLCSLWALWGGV

[3] = target: T1, 5-HT3A receptors; assay: biochemical
[4] = target: T1, 5-HT3A receptors
[5] = target: T2, 5-HT3AB receptors; assay: biochemical
[6] = target: α7 nACh receptors (Homo sapiens, UniProt P36544); assay: Saturation binding of [^3H]VUF10166 on α7 nACh receptors; conditions: data not shown
Sequence of α7 nACh receptors (P36544 23-502): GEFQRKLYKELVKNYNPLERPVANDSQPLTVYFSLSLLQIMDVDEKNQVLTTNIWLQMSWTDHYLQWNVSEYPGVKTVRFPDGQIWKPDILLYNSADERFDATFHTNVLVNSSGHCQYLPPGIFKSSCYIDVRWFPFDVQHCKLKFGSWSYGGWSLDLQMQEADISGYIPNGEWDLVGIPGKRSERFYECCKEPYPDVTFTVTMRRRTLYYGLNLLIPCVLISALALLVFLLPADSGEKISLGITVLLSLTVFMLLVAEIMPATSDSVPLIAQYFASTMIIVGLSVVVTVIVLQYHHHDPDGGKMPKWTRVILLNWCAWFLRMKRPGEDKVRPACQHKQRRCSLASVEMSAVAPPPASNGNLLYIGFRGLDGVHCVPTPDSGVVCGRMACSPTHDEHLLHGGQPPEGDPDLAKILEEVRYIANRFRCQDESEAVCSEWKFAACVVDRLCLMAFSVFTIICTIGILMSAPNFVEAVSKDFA

[7] = target: T1, 5-HT3A receptors; assay: biochemical; format: binding; design: expressed in transfected cells; host or cells: HEK 293; conditions: 5-HT3A
[8] = system: 5-HT3A receptors; design: method as in Nakamura et al., 2013; conditions: ref Nakamura et al., 2013; cited from earlier work
[9] = system: 5-HT3AB receptors; design: method as in Nakamura et al., 2013; conditions: ref Nakamura et al., 2013; cited from earlier work
[10] = target: T3, 5-HT3A receptor Q151C (Homo sapiens, UniProt P46098, Q146C); assay: Saturation binding of [^3H]VUF10166 at 5-HT3A receptor mutant; conditions: Q151C Kd versus wild type
T3 construct: expressed in transfected cells; host or cells: HEK 293
T3 sequence (P46098 24-478 Q146C): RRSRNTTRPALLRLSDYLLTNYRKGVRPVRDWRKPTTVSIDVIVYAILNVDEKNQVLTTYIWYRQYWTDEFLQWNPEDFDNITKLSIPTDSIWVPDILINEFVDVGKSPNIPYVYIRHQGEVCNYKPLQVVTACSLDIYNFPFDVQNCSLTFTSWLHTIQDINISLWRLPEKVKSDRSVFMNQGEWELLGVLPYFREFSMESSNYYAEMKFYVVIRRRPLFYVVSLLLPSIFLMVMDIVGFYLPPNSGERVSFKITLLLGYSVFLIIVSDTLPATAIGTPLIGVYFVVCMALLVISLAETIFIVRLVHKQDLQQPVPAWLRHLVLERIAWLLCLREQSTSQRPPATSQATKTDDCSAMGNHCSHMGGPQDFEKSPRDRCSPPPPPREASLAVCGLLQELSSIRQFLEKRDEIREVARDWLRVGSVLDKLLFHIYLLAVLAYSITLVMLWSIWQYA
Method: (§1) Mutagenesis was performed using the QuikChange method (Agilent Technologies Inc., California, USA) on human 5-HT3A cDNA (accession number: P46098) cloned into pcDNA3.1 (Invitrogen, Paisley, UK). Cysteine residues were substituted for amino acids throughout each of the binding loops A–E (Fig. 1). To facilitate comparisons with previous work, we use the numbering of the equivalent residues in the mouse 5-HT3A subunit; for human numbering 5 should be subtracted from each residue number.
(§2) All data were analysed using GraphPad Prism 4.03.

[11] = target: T4, 5-HT3A receptor R92C (Homo sapiens, UniProt P46098, R87C); assay: as above; conditions: R92C Kd versus wild type
T4 construct: expressed in transfected cells; host or cells: HEK 293
T4 sequence (P46098 24-478 R87C): as the sequence (P46098 24-478 Q146C) above, with R64C, C123Q counted along it
Method: as §1, §2

[12] = target: T5, 5-HT3A receptor I139C (Homo sapiens, UniProt P46098, I134C); assay: as above; conditions: I139C Kd versus wild type
T5 construct: expressed in transfected cells; host or cells: HEK 293
T5 sequence (P46098 24-478 I134C): as the sequence (P46098 24-478 Q146C) above, with I111C, C123Q counted along it
Method: as §1, §2

[13] = target: T6, 5-HT3A receptor S114C (Homo sapiens, UniProt P46098, S109C); assay: as above; conditions: S114C Kd versus wild type
T6 construct: expressed in transfected cells; host or cells: HEK 293
T6 sequence (P46098 24-478 S109C): as the sequence (P46098 24-478 Q146C) above, with S86C, C123Q counted along it
Method: as §1, §2

[14] = target: T7, 5-HT3A receptor R145C (Homo sapiens, UniProt P46098, R140C); assay: as above; conditions: R145C Kd versus wild type
T7 construct: expressed in transfected cells; host or cells: HEK 293
T7 sequence (P46098 24-478 R140C): as the sequence (P46098 24-478 Q146C) above, with R117C, C123Q counted along it
Method: as §1, §2

[15] = target: T8, 5-HT3A receptor N128C (Homo sapiens, UniProt P46098, N123C); assay: as above; conditions: N128C Kd versus wild type
T8 construct: expressed in transfected cells; host or cells: HEK 293
T8 sequence (P46098 24-478 N123C): as the sequence (P46098 24-478 Q146C) above, with N100C, C123Q counted along it
Method: as §1, §2

[16] = target: T9, 5-HT3A receptor N232C (Homo sapiens, UniProt P46098, N227C); assay: as above; conditions: N232C Kd versus wild type
T9 construct: expressed in transfected cells; host or cells: HEK 293
T9 sequence (P46098 24-478 N227C): as the sequence (P46098 24-478 Q146C) above, with C123Q, N204C counted along it
Method: as §1, §2

[17] = target: T10, 5-HT3A receptor I71C (Homo sapiens, UniProt P46098, I66C); assay: as above; conditions: I71C Kd versus wild type
T10 construct: expressed in transfected cells; host or cells: HEK 293
T10 sequence (P46098 24-478 I66C): as the sequence (P46098 24-478 Q146C) above, with I43C, C123Q counted along it
Method: as §1, §2

[18] = target: T11, 5-HT3A receptor H185C (Homo sapiens, UniProt P46098, H180C); assay: as above; conditions: H185C Kd versus wild type
T11 construct: expressed in transfected cells; host or cells: HEK 293
T11 sequence (P46098 24-478 H180C): as the sequence (P46098 24-478 Q146C) above, with C123Q, H157C counted along it
Method: as §1, §2

[19] = target: T12, 5-HT3A receptor K112C (Homo sapiens, UniProt P46098, K107C); assay: as above; conditions: K112C Kd versus wild type
T12 construct: expressed in transfected cells; host or cells: HEK 293
T12 sequence (P46098 24-478 K107C): as the sequence (P46098 24-478 Q146C) above, with K84C, C123Q counted along it
Method: as §1, §2

[20] = target: T1, 5-HT3A receptors; assay: Kinetic measurements (association, dissociation) at 5-HT3A receptors; format: binding; design: expressed in transfected cells; host or cells: HEK 293
[21] = target: T2, 5-HT3AB receptors; assay: Kinetic measurements (association, dissociation) at 5-HT3AB receptors; format: binding; design: expressed in transfected cells; host or cells: HEK 293; conditions: for koff: from kobs plot
[22] = target: T13, 5-HT3A receptor F226C (Homo sapiens, UniProt P46098, F221C); assay: Saturation binding of [^3H]VUF10166 at 5-HT3A receptor mutant; conditions: F226C Kd versus wild type
T13 construct: expressed in transfected cells; host or cells: HEK 293
T13 sequence (P46098 24-478 F221C): as the sequence (P46098 24-478 Q146C) above, with C123Q, F198C counted along it
Method: as §1
(§3) All data were analysed using GraphPad Prism 4.03. […].

[23] = target: T14, 5-HT3A receptor Y153C (Homo sapiens, UniProt P46098, Y148C); assay: as above; conditions: Y153C Kd versus wild type
T14 construct: expressed in transfected cells; host or cells: HEK 293
T14 sequence (P46098 24-478 Y148C): as the sequence (P46098 24-478 Q146C) above, with C123Q, Y125C counted along it
Method: as §1, §3

[24] = target: T15, 5-HT3A receptor L126C (Homo sapiens, UniProt P46098, L121C); assay: as above; conditions: L126C Kd versus wild type
T15 construct: expressed in transfected cells; host or cells: HEK 293
T15 sequence (P46098 24-478 L121C): as the sequence (P46098 24-478 Q146C) above, with L98C, C123Q counted along it
Method: as §1, §3

CC(C)(C)[C@]1(O)CC2OC(=O)CC23C(=O)OC2OC(=O)[C@H](O)C231 (stereo partly shown) [Bilobalide]
inhibition of specific [^3H]VUF10166 binding (in words) [1]: not and unaffected | inhibition of specific [^3H]VUF10166 binding (in words) [2]: not

CC1C(=O)O[C@H]2[C@H](O)[C@@]34[C@H]5C[C@@H](C(C)(C)C)[C@@]36C(O)C(=O)O[C@H]6O[C@@]4(C(=O)O5)[C@@]12O (stereo partly shown) [Ginkgolide]
inhibition of specific [^3H]VUF10166 binding (in words) [1]: not and unaffected | inhibition of specific [^3H]VUF10166 binding (in words) [2]: not

c1ccc2nc(N3CCNCC3)ccc2c1 [Quipazine]
inhibition of specific [^3H]VUF10166 binding (in words) ([1]; 5-HT3A): inhibited | inhibition of specific [^3H]VUF10166 binding (in words) ([2]; 5-HT3AB): inhibited

O=C1C[C@@H]2OCC=C3CN4CC[C@]56c7ccccc7N1[C@H]5[C@H]2[C@H]3C[C@H]46 [Strychnine]
IC50 [3]: 50100 nM | IC50 [1]: 1480 nM | IC50 [2]: 550 nM | competition with [^3H]granisetron (in words) [4]: competed | IC50 [5]: 14100 nM

COc1ccc(-c2ccc(=N)n(CCCC(=O)O)n2)cc1 [Gabazine]
inhibition of specific [^3H]VUF10166 binding (in words) ([1]; 5-HT3A): not | inhibition of specific [^3H]VUF10166 binding (in words) ([2]; 5-HT3AB): not

[3H]CN1CCN(c2nc3ccccc3nc2Cl)CC1 [[^3H]VUF10166, 2-chloro-3-(4-[^3H]methylpiperazin-1-yl)quinoxaline]
specific saturable binding (in words) [6]: no specific saturable binding | non-specific binding ([7]; non-specific binding determined with 2 mM quipazine): < 5% | Bmax ([7]; paired samples): 2229 ± 158 fmol/mg

CC[C@@]1(O)C(=O)OCc2c1cc1n(c2=O)Cc2cc3c(CN(C)C)c(O)ccc3nc2-1 [topotecan]
effect on 5-HT3A receptors (in words) [8]: inhibit | effect on 5-HT3AB receptors (in words) [9]: potentiate

Picrotoxin
inhibition of specific [^3H]VUF10166 binding (in words) [1]: not and unaffected | inhibition of specific [^3H]VUF10166 binding (in words) [2]: not

NCC(=O)O [Glycine]
inhibition of specific [^3H]VUF10166 binding (in words) ([1]; 5-HT3A): not | inhibition of specific [^3H]VUF10166 binding (in words) ([2]; 5-HT3AB): not

CN1[C@@H]2CC[C@H]1C[C@@H](OC(=O)c1cc(Cl)cc(Cl)c1)C2 [MDL72222]
inhibition of specific [^3H]VUF10166 binding (in words) [1]: inhibited | inhibition of specific [^3H]VUF10166 binding (in words) [2]: inhibited

CC(=O)OCC[N+](C)(C)C [ACh]
inhibition of specific [^3H]VUF10166 binding (in words) ([1]; 5-HT3A): not | inhibition of specific [^3H]VUF10166 binding (in words) ([2]; 5-HT3AB): not

CN1CCC[C@H]1c1cccnc1 [Nicotine]
IC50 [3]: 977 nM | IC50 [1]: 155 nM | IC50 [2]: 174 nM | competition with [^3H]granisetron (in words) [4]: competed | IC50 [5]: 275 nM

[3H]CN1CCN(c2nc3ccccc3nc2Cl)CC1 [[^3H]VUF10166] [2-chloro-3-(4-[^3H]methylpiperazin-1-yl)quinoxaline]
Fold change [10]: 8.7 | Fold change [11]: 4.2 | Fold change [12]: 7.4 | Fold change [13]: 1.0 | Fold change [14]: 4.6 | Fold change [15]: 3.3 | Fold change [16]: 9.0 | Fold change [17]: 1.1 | Fold change [18]: 4.5 | Fold change [19]: 1.6 | kon determined directly from kobs values using Equ (5) [20]: 8.24e+07 M/min | koff from dissociation, single exponential ([20]; dissociation in 2 mM quipazine): 0.000183 ± 1.7e-05 s⁻¹ | koff ([20]; intercept of plot of kobs versus radioligand concentration): 0.00017 s⁻¹ | kon ([20]; slope of plot of kobs versus radioligand concentration): 1.04e+06 M⁻¹ s⁻¹ | average kon determined from kobs (Equ (5)) ([21]; below 3 nM [^3H]VUF10166): 8.77e+07 M/min | koff from dissociation, double exponential, fast component ([21]; dissociation in 2 mM quipazine): 0.00378 ± 0.000933 s⁻¹ | koff from dissociation, double exponential, slow component ([21]; dissociation in 2 mM quipazine): 0.000167 ± 5e-05 s⁻¹ | koff ([21]; first component, [^3H]VUF10166 < 3 nM): 0.0004 s⁻¹ | koff ([21]; second component, [^3H]VUF10166 > 3 nM): 0.0027 s⁻¹ | Fold change [22]: 7.6 | Fold change [23]: 9.7 | Fold change [24]: 4.2

CN1CCc2cc3c(cc2[C@H]1[C@@H]1OC(=O)c2c1ccc1c2OCO1)OCO3 [Bicuculline]
inhibition of specific [^3H]VUF10166 binding (in words) [1]: not | inhibition of specific [^3H]VUF10166 binding (in words) [2]: not

COc1cc2c3cc1Oc1cc(ccc1O)C[C@@H]1c4c(cc(OC)c(O)c4Oc4ccc(cc4)C[C@@H]3N(C)CC2)CC[N+]1(C)C [d-Tubocurarine]
IC50 [3]: 24500 nM | IC50 [1]: 3890 nM | inhibition of specific [^3H]VUF10166 binding (in words) [1]: inhibited | IC50 [2]: 3630 nM | inhibition of specific [^3H]VUF10166 binding (in words) [2]: inhibited | IC50 [5]: 51300 nM
